# System: influx of neutrophils to the lung in LPS-challenged rats
# Test: Rat LPS neutrophilia model
# Assay type: in vivo
# Conditions: LPS aerosol, intratracheal dosing, in at least one of the range of conditions tested, significance p<0.05
# In short: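 Compound given intratracheally (200 ul suspension or dry powder via microsprayer) to isoflurane-anesthetized rats 15 min–24 h before 15 min LPS aerosol (100 ug/ml). Lavage 4 h post-challenge; neutrophils from differential counts. % inhibition versus no-compound controls at a given concentration and pretreat time.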
row,SMILES,inhibition of neutrophilia
1,"CNCCNc1nc(-c2cc(C(=O)Nc3nccs3)ccc2C)c2ccc(=O)n(-c3c(F)cccc3F)c2n1 [Example 61, 3-(8-(2,6-difluorophenyl)-2-{[2-(methylamino)ethyl]amino}-7-oxo-7,8-dihydropyrido[2,3-d]pyrimidin-4-yl)-4-methyl-N-1,3-thiazol-2-ylbenzamide]",statistically significant inhibition
2,"CCCCNC(=O)c1ccc(C)c(-c2nc(N3CCC(N4CCC(C)CC4)CC3)nc3c2ccc(=O)n3-c2c(F)cccc2F)c1 [Example 167, N-butyl-3-[8-(2,6-difluorophenyl)-2-(4-methyl-1,4′-bipiperidin-1′-yl)-7-oxo-7,8-dihydropyrido[2,3-d]pyrimidin-4-yl]-4-methylbenzamide]",statistically significant inhibition
3,"Cc1ccc(C(=O)Nc2nccs2)cc1-c1nc(NCCCNC(C)C)nc2c1ccc(=O)n2-c1c(F)cccc1F [Example 101, 3-[8-(2,6-difluorophenyl)-2-({3-[(1-methylethyl)amino]propyl}amino)-7-oxo-7,8-dihydropyrido[2,3-d]pyrimidin-4-yl]-4-methyl-N-1,3-thiazol-2-ylbenzamide]",statistically significant inhibition
4,"Cc1ccc(C(=O)NC2CC2)cc1-c1nc(N2CCC(N3CCC(C)CC3)CC2)nc2c1ccc(=O)n2-c1c(F)cccc1F [Example 178, N-cyclopropyl-3-[8-(2,6-difluorophenyl)-2-(4-methyl-1,4′-bipiperidin-1′-yl)-7-oxo-7,8-dihydropyrido[2,3-d]pyrimidin-4-yl]-4-methylbenzamide]",statistically nonsignificant inhibition
5,"Cc1ccc(C(=O)Nc2ccc(F)cc2)cc1-c1nc(NCCN(C)C(=O)OC(C)(C)C)nc2c1ccc(=O)n2-c1c(F)cccc1F [Example 95, 1,1-dimethylethyl(2-{[8-(2,6-difluorophenyl)-4-(5-{[(4-fluorophenyl)amino]carbonyl}-2-methylphenyl)-7-oxo-7,8-dihydropyrido[2,3-d]pyrimidin-2-yl]amino}ethyl)methylcarbamate]",statistically nonsignificant inhibition
6,"Cc1ccc(C(=O)NC2CCCC2)cc1-c1nc(NCc2ncc[nH]2)nc2c1ccc(=O)n2-c1c(F)cccc1F [Example 76, N-cyclopentyl-3-{8-(2,6-difluorophenyl)-2-[(1H-imidazol-2-ylmethyl)amino]-7-oxo-7,8-dihydropyrido[2,3-d]pyrimidin-4-yl}-4-methylbenzamide]",statistically nonsignificant inhibition
7,"Cc1ccc(C(=O)Nc2ccc(F)cc2)cc1-c1nc(N(C)CCN(C)C)nc2c1ccc(=O)n2-c1c(F)cccc1F [Example 99, 3-{8-(2,6-difluorophenyl)-2-[[2-(dimethylamino)ethyl](methyl)amino]-7-oxo-7,8-dihydropyrido[2,3-d]pyrimidin-4-yl}-N-(4-fluorophenyl)-4-methylbenzamide]",statistically nonsignificant inhibition
8,"CCN(CC)CCCNc1nc(-c2cc(C(=O)NC(C)C)ccc2C)c2ccc(=O)n(-c3c(F)cccc3F)c2n1 [118(b), 3-[2-{[3-(diethylamino)propyl]amino}-8-(2,6-difluorophenyl)-7-oxo-7,8-dihydropyrido[2,3-d]pyrimidin-4-yl]-4-methyl-N-(1-methylethyl)benzamide]",statistically nonsignificant inhibition
9,"CNCCNc1nc(-c2cc(C(=O)NC3CCCC3)ccc2C)c2ccc(=O)n(-c3c(F)cccc3F)c2n1 [Example 58, N-cyclopentyl-3-(8-(2,6-difluorophenyl)-2-{[2-(methylamino)ethyl]amino}-7-oxo-7,8-dihydropyrido[2,3-d]pyrimidin-4-yl)-4-methylbenzamide]",statistically significant inhibition
10,"Cc1ccc(C(=O)NC(C)C)cc1-c1nc(N2CCC(N)CC2)nc2c1ccc(=O)n2-c1c(F)cccc1F [Example 68, 3-[2-(4-amino-1-piperidinyl)-8-(2,6-difluorophenyl)-7-oxo-7,8-dihydropyrido[2,3-d]pyrimidin-4-yl]-4-methyl-N-(1-methylethyl)benzamide]",statistically significant inhibition
11,CNCCNc1nc(-c2cc(C(=O)NCC3CC3)ccc2C)c2ccc(=O)n(-c3c(F)cccc3F)c2n1 [Example 4],statistically significant inhibition
12,"Cc1ccc(C(=O)Nc2ccc(F)cc2)cc1-c1nc(NC2CC(C)(C)NC(C)(C)C2)nc2c1ccc(=O)n2-c1c(F)cccc1F [Example 66, 3-{8-(2,6-difluorophenyl)-7-oxo-2-[(2,2,6,6-tetramethyl-4-piperidinyl)amino]-7,8-dihydropyrido[2,3-d]pyrimidin-4-yl}-N-(4-fluorophenyl)-4-methylbenzamide]",statistically significant inhibition
13,"CCN(CC)CCCNc1nc(-c2cc(C(=O)NC3CC3)cc(F)c2C)c2ccc(=O)n(-c3c(F)cccc3F)c2n1 [Example 185, N-cyclopropyl-3-[2-{[3-(diethylamino)propyl]amino}-8-(2,6-difluorophenyl)-7-oxo-7,8-dihydropyrido[2,3-d]pyrimidin-4-yl]-5-fluoro-4-methylbenzamide]",statistically nonsignificant inhibition
14,"Cc1ccc(C(=O)NCc2ccccc2)cc1-c1nc(NCc2ncc[nH]2)nc2c1ccc(=O)n2-c1c(F)cccc1F [Example 77, 3-{8-(2,6-difluorophenyl)-2-[(1H-imidazol-2-ylmethyl)amino]-7-oxo-7,8-dihydropyrido[2,3-d]pyrimidin-4-yl}-4-methyl-N-(phenylmethyl)benzamide]",statistically significant inhibition
15,"CCN(CC)CCCNc1nc(-c2cc(C(=O)NCC(C)C)ccc2C)c2ccc(=O)n(-c3c(F)cccc3F)c2n1 [Example 124, 3-[2-{[3-(diethylamino)propyl]amino}-8-(2,6-difluorophenyl)-7-oxo-7,8-dihydropyrido[2,3-d]pyrimidin-4-yl]-4-methyl-N-(2-methylpropyl)benzamide]",statistically significant inhibition
16,"CNCCNc1nc(-c2cc(C(=O)Nc3ccc(F)cc3)ccc2C)c2ccc(=O)n(-c3c(F)cccc3F)c2n1 [Example 60, 3-(8-(2,6-difluorophenyl)-2-{[2-(methylamino)ethyl]amino}-7-oxo-7,8-dihydropyrido[2,3-d]pyrimidin-4-yl)-N-(4-fluorophenyl)-4-methylbenzamide]",statistically significant inhibition
17,"Cc1ccc(C(=O)Nc2nccs2)cc1-c1nc(NCCN(C)C)nc2c1ccc(=O)n2-c1c(F)cccc1F [Example 109, 3-(8-(2,6-difluorophenyl)-2-{[2-(dimethylamino)ethyl]amino}-7-oxo-7,8-dihydropyrido[2,3-d]pyrimidin-4-yl)-4-methyl-N-1,3-thiazol-2-ylbenzamide]",statistically significant inhibition
18,"Cc1ccc(NC(=O)c2ccsc2)cc1-c1nc(NC2CC(C)(C)NC(C)(C)C2)nc2c1ccc(=O)n2-c1c(F)cccc1F [31(e), N-(3-{8-(2,6-difluorophenyl)-7-oxo-2-[(2,2,6,6-tetramethyl-4-piperidinyl)amino]-7,8-dihydropyrido[2,3-d]pyrimidin-4-yl}-4-methylphenyl)-3-thiophenecarboxamide]",statistically significant inhibition
19,"CCN(CC)CCCNc1nc(-c2cc(C(=O)Nc3ccc(F)cc3)ccc2C)c2ccc(=O)n(-c3c(F)cccc3F)c2n1 [Example 160, 3-[2-{[3-(diethylamino)propyl]amino}-8-(2,6-difluorophenyl)-7-oxo-7,8-dihydropyrido[2,3-d]pyrimidin-4-yl]-N-(4-fluorophenyl)-4-methylbenzamide]",statistically significant inhibition
20,"CCN(CC)CCCNc1nc(-c2cc(C(=O)Nc3ccccc3)ccc2C)c2ccc(=O)n(-c3c(F)cccc3F)c2n1 [Example 147, 3-[2-{[3-(diethylamino)propyl]amino}-8-(2,6-difluorophenyl)-7-oxo-7,8-dihydropyrido[2,3-d]pyrimidin-4-yl]-4-methyl-N-phenylbenzamide]",statistically nonsignificant inhibition
21,"Cc1ccc(C(=O)Nc2nccs2)cc1-c1nc(NCCNC(C)C)nc2c1ccc(=O)n2-c1c(F)cccc1F [Example 103, 3-[8-(2,6-difluorophenyl)-2-({2-[(1-methylethyl)amino]ethyl}amino)-7-oxo-7,8-dihydropyrido[2,3-d]pyrimidin-4-yl]-4-methyl-N-1,3-thiazol-2-ylbenzamide]",statistically significant inhibition
22,"Cc1ccc(C(=O)Nc2ccc(F)cc2)cc1-c1nc(N2CCC(N3CCC(C)CC3)CC2)nc2c1ccc(=O)n2-c1c(F)cccc1F [Example 174, 3-[8-(2,6-difluorophenyl)-2-(4-methyl-1,4′-bipiperidin-1′-yl)-7-oxo-7,8-dihydropyrido[2,3-d]pyrimidin-4-yl]-N-(4-fluorophenyl)-4-methylbenzamide]",inactive
23,"CCN(CC)CCCNc1nc(-c2cc(C(=O)NCCOC)ccc2C)c2ccc(=O)n(-c3c(F)cccc3F)c2n1 [Example 134, 3-[2-{[3-(diethylamino)propyl]amino}-8-(2,6-difluorophenyl)-7-oxo-7,8-dihydropyrido[2,3-d]pyrimidin-4-yl]-4-methyl-N-[2-(methyloxy)ethyl]benzamidetrifluoroacetate]",statistically nonsignificant inhibition
24,"Cc1ccc(C(=O)Nc2nccs2)cc1-c1nc(NCCCNC(C)(C)C)nc2c1ccc(=O)n2-c1c(F)cccc1F [Example 102, 3-[8-(2,6-difluorophenyl)-2-({3-[(1,1-dimethylethyl)amino]propyl}amino)-7-oxo-7,8-dihydropyrido[2,3-d]pyrimidin-4-yl]-4-methyl-N-1,3-thiazol-2-ylbenzamide]",statistically nonsignificant inhibition

# Reference: patent US20100144755A1 (Glaxo Group Limited, priority 2006, published 2010)
